Experiments:
[1] = tested on: HBeAg level in HepDES19 cells (surrogate marker for cccDNA); assay: Engineered HepDES19 primary screen assay (HBeAg as surrogate marker for cccDNA); type: cell-based, HBV; settings: Hepatitis B virus, HepDES19, 120 h, read-out: IC50 (HBeAg level, HepDES19 primary screen assay)
Description: The assay was employed to screen for novel cccDNA inhibitors. HepDES19 is a cccDNA-producing cell line. In this cell line, HBeAg in the cell culture supernatant as surrogate marker, as HBeAg production depends on cccDNA level and activity. HepDES19 is an engineered cell line which contains a 1.1 unit length HBV genome, and pgRNA transcription from the transgene is controlled by Tetracycline (Tet). In the absence of Tet, pgRNA transcription will be induced, but HBV e antigen (HBeAg) could not be produced from this pgRNA due to very short leader sequence before the HBeAg start codon and the start codon is disrupted. Only after cccDNA is formed, the missing leader sequence and start codon mutation would be restored from the 3′-terminal redundancy of pgRNA, and then HBeAg could be synthesized. Therefore, HBeAg could be used as a surrogate marker for cccDNA (Zhou, T. et al., Antiviral Res. (2006), 72(2), 116-124; Guo, H. et al., J. Virol. (2007), 81(22), 12472-12484).
HepDES19 cells were seeded at 2×10^6 cells per T150 flask and cultured with the culture medium (Dulbecco's Modified Eagle Medium: Nutrient Mixture F-12 [DMEM-F12, Gibco Cat. 11320-82], 10% Fetal Bovine Serum [FBS, Clontech Cat. 631101], 0.1 mM Non-Essential Amino Acids Solution [NEAA, Gibco Cat. 11140-050], 50 μg/mL Penicillin-Streptomycin [PS, Invitrogen Cat. 15140-163], 500 μg/mL Geneticin [G418, Invitrogen Cat. 10131-027]) containing 3 μg/mL Tet (Sigma, Cat. 87128) for 5 days. Cells were then seeded at 4×10^6 cells per T150 in the same culture medium as described above in the absence of Tet for 8 days. Cells were then harvested and frozen at density of 2×10^6 cells per mL. For compound testing, the frozen cells were thawed and seeded into 96-well plates at a density of 6×10^4 cells per well. At 24 hours after seeding, half log serial dilutions of compounds made with Dimethyl sulfoxide (DMSO, Sigma, Cat. D2650) were further diluted with the same culture medium as described above before they were added to the cells to reach desired final compound concentrations and 1% DMSO concentration. Plates were then incubated at 37° C. for another 5 days before measurement of HBeAg level and cell viability. Intracellular HBeAg level were measured with enzyme-linked immunosorbent assay (ELISA) kit (Shanghai Kehua Diagnostic Medical Products Co., Ltd). Cell viability was assessed using Cell Counting Kit-8 (Donjindo, Cat. CK04-20). IC50 values were derived from the dose-response curve using 4 parameter logistic curve fit method.
The compounds of the present invention were tested for their capacity to inhibit extracellular HBeAg level as described herein.

[2] = tested on: HBV (extracellular HBsAg) in PHH; assay: Cryopreserved primary human hepatocytes (PHH) HBV infection assay, extracellular HBsAg (CLIA); type: cell-based; settings: Hepatitis B virus, Hepatocyte, 216 h, read-out: HBsAg IC50
Protocol: This assay is used to confirm the anti-HBV effect of the compounds in HBV PHH infection assay. Cryopreserved PHH (BioreclamationIVT, Lot YJM) was thawed at 37° C. and gently transferred into pre-warmed InVitroGRO HT medium (BioreclamationIVT, Cat. S03317). The mixture was centrifuged at 70 relative centrifugal force (RCF) for 3 mins at RT, and the supernatant was discarded. Pre-warmed InVitroGRO CP medium (BioreclamationIVT, Cat #S03316) was added to the cell pellet to gently re-suspend cells. The cells were seeded at the density of 5.8×10^4 cells per well to collagen I coated 96-well plate (Gibco, Cat. A1142803) with the InVitroGRO CP medium. All plates were incubated at 37° C. with 5% CO2 and 85% humidity.
At 20 hours after plating, the medium was changed to PHH culture medium (Dulbecco's Modified Eagle Medium (DMEM)/F12 (1:1) (Gibco, Cat. 11320-033), 10% fetal bovine serum (Gibco Cat. 10099141), 100 U/mL penicillin, 100 μg/mL streptomycin (Gibco, Cat. 151401-122), 5 ng/mL human epidermal growth factor (Invitrogen Cat. PHG0311L), 20 ng/mL dexamethasone (Sigma, Cat. D4902) and 250 ng/mL human recombinant insulin (Gibco, Cat. 12585-014)). And the cells were incubated at 37° C. with 5% CO2 and 85% humidity for 4 hours. The medium was then changed to pre-warmed PHH culture medium containing 4% polyethylene glycol (PEG) MW8000 (Sigma, Cat. P1458-50ML) and 1% DMSO (Sigma, Cat. D2650). 5.8×10^6 genomic equivalents of HBV were added into the medium.
At 24 hours post-infection, the cells were gently washed with PBS and refreshed with PHH culture medium supplemented with 1% DMSO, and 0.25 mg/mL Matrix gel (Corning, Cat. 356237) at 200 μL per well. All plates were immediately placed in at 37° C. CO2 incubator.
24 hours later, serial dilutions of compounds made with DMSO were further diluted with the same culture medium (PHH culture medium supplemented with 1% DMSO and 0.25 mg/mL Matrix gel as described above) before they were added to the cells to reach desired final compound concentrations and 1% DMSO concentration. The medium containing the compounds were refreshed every three days.
At 9 days post-compound treatment, extracellular HBsAg level were measured with Chemiluminescence Immuno Assay (CLIA) kit (Autobio, HBsAg Quantitative CLIA). Extracellular HBV DNA was extracted by MagNA Pure 96 system (Roche) and then determined by quantitative PCR with the following primers and probe: […]
HBsAg IC50 and HBV DNA IC50 values were derived from the dose-response curve using 4 parameter logistic curve fit method. The compounds of formula (I) have HBsAg IC50<20 μM, particularly <1 μM; and HBV DNA IC50<50 μM.

| Compound | IC50 [1] [µM] | IC50 [2] [µM] |
| --- | --- | --- |
| CC(C)(C)OC(=O)N1CCc2c(oc3c(Cl)cccc3c2=O)C1 [Example 1, tert-butyl 9-chloro-5-oxo-3,4-dihydro-1H-chromeno[2,3-c]pyridine-2(5H)-carboxylate] | 9.12 | 10.6 |
| COc1ccc(N2CCc3c(oc4c(Cl)cccc4c3=O)C2=O)cc1 [Example 9, 9-chloro-2-(4-methoxyphenyl)-3,4-dihydro-1H-chromeno[2,3-c]pyridine-1,5(2H)-dione] | 2.73 | 3.52 |
| O=C1c2oc3c(Cl)cccc3c(=O)c2CCN1c1ccc(Cl)cc1 [Example 12, 9-chloro-2-(4-chlorophenyl)-3,4-dihydro-1H-chromeno[2,3-c]pyridine-1,5(2H)-dione] | 0.82 | 2.76 |
| O=C1c2oc3c(Cl)cccc3c(=O)c2CCN1c1ccc(F)cc1 [Example 14, 9-chloro-2-(4-fluorophenyl)-3,4-dihydro-2H-chromeno[2,3-c]pyridine-1,5-dione] | 2.07 | 9.85 |
| O=C1c2oc3c(Cl)cccc3c(=O)c2CCN1c1ccc(Cl)nc1 [Example 16, 9-chloro-2-(6-chloropyridin-3-yl)-3,4-dihydro-2H-chromeno[2,3-c]pyridine-1,5-dione] | 34.4 | 3.17 |
| COc1cc(Cl)ccc1N1CCc2c(oc3c(Cl)cccc3c2=O)C1=O [Example 17, 9-chloro-2-(4-chloro-2-methoxyphenyl)-3,4-dihydro-2H-chromeno[2,3-c]pyridine-1,5-dione] | 2.4 | 14.7 |
| O=C1c2oc3c(Cl)cccc3c(=O)c2CCN1c1ccc(F)c(C(F)(F)F)c1 [Example 18, 9-chloro-2-(4-fluoro-3-(trifluoromethyl)phenyl)-3,4-dihydro-2H-chromeno[2,3-c]pyridine-1,5-dione] | 14 | 2.84 |
| O=C1c2oc3c(Cl)cccc3c(=O)c2CCN1c1ccccc1 [Example 19, 9-chloro-2-phenyl-3,4-dihydro-2H-chromeno[2,3-c]pyridine-1,5-dione] | 0.56 | 16.9 |
| O=C1c2oc3c(Cl)cccc3c(=O)c2CCN1c1ccc(C(F)(F)F)cc1 [Example 20, 9-chloro-2-(4-(trifluoromethyl)phenyl)-3,4-dihydro-2H-chromeno[2,3-c]pyridine-1,5-dione] | 5.68 | 7.4 |
| O=C1c2oc3c(Cl)cccc3c(=O)c2CCN1c1ccc(Cl)c(C(F)(F)F)c1 [Example 22, 9-chloro-2-(4-chloro-3-(trifluoromethyl)phenyl)-3,4-dihydro-2H-chromeno[2,3-c]pyridine-1,5-dione] | 25.6 | 3.44 |
| O=C1c2oc3c(Cl)cccc3c(=O)c2CCN1c1ccccc1OC(F)(F)F [Example 23, 9-chloro-2-(2-(trifluoromethoxy)phenyl)-3,4-dihydro-2H-chromeno[2,3-c]pyridine-1,5-dione] | 6.88 | 16.5 |
| O=C(O)C1CC(Oc2ccccc2N2CCc3c(oc4c(Cl)cccc4c3=O)C2=O)C1 (stereo not shown) [Example 25, 3-(2-(9-chloro-1,5-dioxo-1,3,4,5-tetrahydro-2H-chromeno[2,3-c]pyridin-2-yl)phenoxy)cyclobutane-1-carboxylic Acid] |  | 48.4 |
| O=C(O)C1CC(Oc2cc(Cl)ccc2N2CCc3c(oc4c(Cl)cccc4c3=O)C2=O)C1 (stereo not shown) [Example 26, 3-(5-chloro-2-(9-chloro-1,5-dioxo-1,3,4,5-tetrahydro-2H-chromeno[2,3-c]pyridin-2-yl)phenoxy)cyclobutane-1-carboxylic Acid] |  | 18.1 |
| O=C1c2oc3c(Cl)cccc3c(=O)c2CCN1c1ccc(Cl)cc1C(F)(F)F [Example 27, 9-chloro-2-(4-chloro-2-(trifluoromethyl)phenyl)-3,4-dihydro-2H-chromeno[2,3-c]pyridine-1,5-dione] | 0.89 | 13 |
| O=C1c2oc3c(Cl)cccc3c(=O)c2CCN1c1ccc(Cl)c(Cl)c1 [Example 28, 9-chloro-2-(3,4-dichlorophenyl)-3,4-dihydro-2H-chromeno[2,3-c]pyridine-1,5-dione] | 1.08 | 0.57 |
| O=C1c2oc3c(Cl)cccc3c(=O)c2CCN1c1ccc(Cl)cc1F [Example 29, 9-chloro-2-(4-chloro-2-fluorophenyl)-3,4-dihydro-2H-chromeno[2,3-c]pyridine-1,5-dione] | 2.36 | 2.17 |
| Cn1cc(N2CCc3c(oc4c(Cl)cccc4c3=O)C2=O)cn1 [Example 35, 9-chloro-2-(1-methyl-1H-pyrazol-4-yl)-3,4-dihydro-2H-chromeno[2,3-c]pyridine-1,5-dione] | 46.9 | 10.5 |
| O=c1c2c(oc3c(Cl)cccc13)CN(c1ccc(C(F)(F)F)cc1)CC2 [Example 39, 9-chloro-2-(4-(trifluoromethyl)phenyl)-1,2,3,4-tetrahydro-5H-chromeno[2,3-c]pyridin-5-one] | 0.96 | 5.65 |
| COc1ccc(N2CCc3c(oc4c(Cl)cccc4c3=O)C2)cc1 [Example 40, 9-chloro-2-(4-methoxyphenyl)-1,2,3,4-tetrahydro-5H-chromeno[2,3-c]pyridin-5-one] | 5.9 | 11.6 |
| COc1cccc(N2CCc3c(oc4c(Cl)cccc4c3=O)C2)c1 [Example 41, 9-chloro-2-(3-methoxyphenyl)-1,2,3,4-tetrahydro-5H-chromeno[2,3-c]pyridin-5-one] | 19.2 | 30.7 |
| O=C1c2oc3c(Cl)cccc3c(=O)c2CN1c1ccc(Cl)cc1 [Example 51, 5-chloro-2-(4-chlorophenyl)-1H-chromeno[2,3-c]pyrrole-3,9-dione] | 5.46 | 5.8 |

From patent US20210387996A1, “TRICYCLIC COMPOUNDS FOR THE TREATMENT AND PROPHYLAXIS OF HEPATITIS B VIRUS DISEASE” (priority 2018, published 2021)
